Laboratory results published in US12594282B2, “Use of small molecule compounds in the treatment of diseases mediated by lung epithelial cell injury and/or vascular endothelial cell injury” (Guangzhou Cellprotek Pharmaceutical Co., Ltd., priority 2020, dated 2026).

Legend:
NR4A3 [1] = test: NR4A3 protein expression under OGD-R, RAOEC (Western blot, immunofluorescence); type: cell-based, rat; conditions: OGD 4 hours, restoration 24 hours, 1, 3, 10 μM given at restoration
Procedure: (§1) HUVEC cells were cultured in modified DMEM medium containing 10% fetal bovine serum. When the cells reached about 80% confluence, the cells were digested with 0.25% trypsin, and then pipetted evenly with modified DMEM containing 10% […]. The cell concentration was adjusted to 1×10^5 cells/mL, and the cells were seeded at 400 uL/well in a 24-well plate, and the experiment was carried out when the cells grew to about 70% confluence. RAOEC cells were cultured in high-glucose DMEM medium containing 10% fetal bovine serum, and the seeding conditions were the same as those of HUVEC. During the OGD-R injury treatment, the hypoxia workstation was set to have an oxygen concentration of 1% (1% O2, 5% CO2, 94% N2), a temperature of 37° C., and a humidity of 85%. A sugar-free DMEM medium was placed in the hypoxia workstation for pre-hypoxia for 3 hours. The medium in the culture plate was aspirated, and the plate was washed twice with preheated sugar-free DMEM medium, and 100 uL of sugar-free DMEM medium was added to each well. The culture plate was placed in the hypoxia workstation, and 300 uL of pre-hypoxic sugar-free DMEM medium was added to each well, and then the culture plate was placed in the hypoxia workstation for additional hypoxia for 4 hours. Restoration was then performed. The culture plate was taken out, and the sugar-free DMEM medium was replaced with 400 uL of normal medium containing 10% fetal bovine serum, and then the plate was placed in a 37° C. 5% CO2 cell incubator for culturing for 24 hours or a specified time period. For the cells in the normal group, it was only replaced with 400 uL of new normal medium containing 10% fetal bovine serum. […]
The cells were washed twice with pre-cooled PBS, then scraped off with a cell scraper and transferred to a 1.5 mL centrifuge tube, and centrifugation was performed at 4° C. and 1000 g for 5 minutes. […] Each protein sample was then quantified using the BCA protein quantification kit. After protein quantification, protein lysis buffer was used to adjust the protein concentration of each sample to be consistent with the protein sample with the lowest concentration, and then each protein sample was sufficiently mixed with 5× protein loading buffer at a ratio of 4:1. […]

NR4A3 [2] = test: NR4A3 ubiquitination after OGD-R in vascular endothelial cells (immunoprecipitation with anti-ubiquitin antibodies); type: cell-based
Procedure: as §1
The cells were washed twice with pre-cooled PBS, then scraped off with a cell scraper and transferred to a 1.5 mL centrifuge tube, and centrifugation was performed at 4° C. and 1000 g for 5 minutes. […] Each protein sample was then quantified using the BCA protein quantification kit. After protein quantification, IP lysis buffer was used to adjust the protein concentration of each sample to 1 mg/mL. […]

HPAEpiC cells = test: LPS+hypoxia model, LDH release, alveolar epithelial cells; type: cell-based, human
Procedure: HPAEpiC cells were cultured with alveolar epithelial cell medium. When the cells grew to about 80% confluence, the cells were digested with 0.25% trypsin, and then pipetted evenly with alveolar epithelial cell medium. The cell concentration was adjusted to 2×10^5 cells/mL, and the cells were seeded in a 24-well plate at 400 uL/well. The experiment was conducted when the cells grew to about 70% confluence.
The hypoxia workstation was set to have an oxygen concentration of 1% (1% O2, 5% CO2, 94% a temperature to 37° C., and a humidity of 85%. After the conditions in the hypoxia workstation were stable, 1 mg/mL LPS was directly added to the cells to make the final concentration of LPS […], and then the cells were cultured in the hypoxia workstation for 24 hours.
Before being subjected to the model, the cells in the drug group were pre-incubated with vehicle (20% hydroxypropyl cyclodextrin solution) or drug (the final concentration of YC-6 was 1 μM, 5 μM, 10 μM) for 1 hour, and then added with LPS, and placed in the hypoxia workstation for constructing the model, until the end of the experiment. The model control group was not treated with any drug, and the normal group was placed in a cell incubator for routine culturing. 10 μM dexamethasone was used as the drug control. Three replicates were performed for each treatment group.

SMILES: C[C@@]12CCCC1C1C[C@@H](O)[C@]3(O)C[C@@H](O)CC[C@]3(C)C1CC2 (stereo partly drawn) [YC-6, 5α-androst-3β,5,6β-triol]
- NR4A3 protein expression (NR4A3 [1]): dose-dependently increase the protein expression of NR4A3
- ubiquitination of NR4A3 on co-administration with MG132 (NR4A3 [2]; YC-6 10 μM with MG132 100 nM after restoration): did not significantly increase the ubiquitination of NR4A3
- ubiquitination modification of NR4A3 induced by restoration (NR4A3 [2]; YC-6 10 μM, MG132 100 nM, given at restoration): could inhibit the ubiquitination of NR4A3 induced by restoration
- protective effect compared with 10 μM dexamethasone (LDH release) (HPAEpiC cells; 10 μM, LPS and 1% O2 for 24 hours): significantly better protective effect than dexamethasone
- damage to alveolar epithelial cells (LDH release) induced by hypoxia and LPS (HPAEpiC cells; 1, 5, 10 μM, 1 hour pre-incubation, 20 μg/mL LPS and 1% O2 for 24 hours): dose-dependently reduce damage to alveolar epithelial cells
